Measurements as given in patent US20150164762A1, “USE OF ETHANOLAMINE PHOSPHATE” (priority 2012, published 2015).
Where two headings read alike, the source gives them in different places.

How the values were obtained:
BEAS-2B [1] = test: Proliferative effects of EP and its metabolic derivatives (WST-8); format: cell-based, human
BEAS-2B [2] = test: Permeability test, 4-kilodalton fluorescent dextran through BEAS-2B cell sheet (Papp); format: cell-based, human; details: Dex 1 μM, with or without EP 1 mM
Experimental: Cells of the established normal human airway epithelial cell line BEAS-2B were seeded to 1×10^5 cells/cm^2 on a cell culture insert (353104, BD Falcon) (FIG. 14). 10% FBS RPMI-1640 was used as the medium. The amount of medium was 200 μl on the insert side and 750 μl on the well side. Beginning the next day, substitution/medium replacement was performed once a day with 1% FBS RPMI-1640 prepared with the following 4 reagent conditions, and transepithelial electrical resistance (TER) was measured with MilliCell (Millipore). • Condition 1: Control • Condition 2: EP 1 mM • Condition 3: Dexamethasone 1 μM (dexamethasone (Dex): positive control substance known to enhance barrier function) • Condition 4: EP 1 mM and Dex 1 μM
7 days after cell seeding a permeability test was performed as follows.
A 4-kilodalton fluorescent dextran molecule (Sigma) was added to the cell culture insert to a concentration of 0.1 mg/ml, 20 μl of the medium on the well side was removed after 1 hour, and the amount of permeating fluorescent dextran was estimated from the fluorescent strength at each concentration. The permeation rate Papp of a substance from the insert side to the well side is normally determined by the following formula.
Papp=(volume of medium on well side/insert area×initial insert concentration)×(altered concentration on well side/elapsed time)

HHDPC cells = test: WST-8 proliferation test, primary normal human hair dermal papilla cells (HHDPC); details: high concentrations
Experimental: HHDPC cells (Cosmo Bio) were seeded to 1×10^4 cells/cm^2 on a 96-well plate. Complete MSCM medium (500, ScienCell) was used as the medium. After 24 hours, the cells were washed gently with 200 μl per well of PBS, the medium was replaced with 90 μl per well of 0% FBS DMEM with 1 vol % of complete MSCM medium added thereto, and the cells were cultured for 24 hours. After culture, 10 μl per well of EP solution was added, and a proliferation test (WST-8 assay) was performed 6 days after EP administration. The WST-8 assay was performed as in Example 1. The same test was performed using minoxidil, which has a clinical hair growth effect.

BEAS-2B [3] = test: Proliferation test with GABA receptor agonists and GABA-A antagonist (WST-8); format: cell-based, human; details: 0.1% FBS, 72 hours
Experimental: […] […] Next, 10 μl per well of GABA (GABA-A and GABA-B receptor agonist) and homotaurine (GABA-A agonist) were added. A proliferation test (WST-8 assay) was performed after 72 hours.
[…] […] 10 μl per well of EP solution was added. A proliferation test (WST-8 assay) was performed after 72 hours.

BEAS-2B [4] = test: Cell toxicity of H2O2 after EP pre-treatment (WST-8 assay); format: cell-based, human; details: Homo sapiens, BEAS-2B, read-out: EC50 (50% cell death concentration of H2O2)
Experimental: Cells of the normal airway epithelial cell line BEAS-2B were seeded at a density of 1×10^5/cm^2 on a 96-well plate, and after 24 hours the medium was replaced with 0.5% FBS RPMI 1640 containing EP at final concentrations of 0, 250 and 500 μM. 24 hours after medium replacement the medium was replaced with 0.5% FBS RPMI-1640, and serially diluted H2O2 was administered (n=4). 24 hours after H2O2 administration a cell toxicity test WST-8 assay (Cell Counting Kit-8, Dojindo) was performed. For the data analysis, the 50% cell death concentration EC50 was calculated with GraphPad Prism 5 statistical analysis software.

BEAS-2B [5] = test: DNA microarray of H2O2-treated samples and correlational analysis with EP; format: cell-based, human; details: H2O2 125 μM, 6 hours
Experimental: The data of Example 13 were used as the EP gene expression data. Cell preparation and H2O2 administration were performed as in Test 13. Samples that had been treated for 6 hours with H2O2 at a final concentration of 125 μM were used as samples for gene expression analysis by DNA microarray.

SMILES: NCCO [ethanolamine]
- animal cell proliferation without serum or growth factors (BEAS-2B [1]): not obtained
- proliferative action (BEAS-2B [1]; 0.1% FBS, 72 hours): much weaker than that of EP

SMILES: C[C@@H]1C[C@H]2[C@@H]3CCC4=CC(=O)C=C[C@]4(C)[C@@]3(F)[C@@H](O)C[C@]2(C)[C@@]1(O)C(=O)CO [dexamethasone, reference compound]
- drop in Papp (BEAS-2B [2]): no rise in TER or drop in Papp

SMILES: C[N+](C)(C)CCOP(=O)(O)O [phosphorylcholine]
- animal cell proliferation without serum or growth factors (BEAS-2B [1]): not obtained

SMILES: OCCNCCO [diethanolamine]
- animal cell proliferation without serum or growth factors (BEAS-2B [1]): not obtained

SMILES: C[N+](C)(C)CCOP(=O)(O)OP(=O)([O-])OC[C@H]1O[C@@H](n2ccc(N)nc2=O)[C@H](O)[C@@H]1O [CDP-choline]
- animal cell proliferation without serum or growth factors (BEAS-2B [1]): not obtained

SMILES: Nc1cc(N2CCCCC2)nc(N)[n+]1[O-] [Minoxidil, minoxidil, reference compound]
- cell toxicity (HHDPC cells): toxic above that range

SMILES: NCCCC(=O)O [GABA]
- proliferative action (BEAS-2B [3]): neither the GABA-A and GABA-B receptor agonist GABA nor the EP structural analog and GABA-A receptor agonist homotaurine exhibited any statistically significant proliferative action

SMILES: NCCCS(=O)(=O)O [homotaurine]
- proliferative action (BEAS-2B [3]): neither the GABA-A and GABA-B receptor agonist GABA nor the EP structural analog and GABA-A receptor agonist homotaurine exhibited any statistically significant proliferative action

SMILES: OO [H2O2, hydrogen peroxide, reference compound]
- EC50 (BEAS-2B [4]; cells pre-treated with 250 uM EP): 190 µM
- EC50 (BEAS-2B [4]; cells pre-treated with 500 uM EP): 177 µM
- EC50 (BEAS-2B [4]; control, no EP pre-treatment, 24 h): 128 µM
- expression of apoptosis-associated genes reduced by EP (30 probes) (BEAS-2B [5]): generally had their expression increased
- expression of cytokines and chemokines (BEAS-2B [5]): induced expression of cytokines and chemokines

SMILES: C[N+]1(C)CCc2cc3c(cc2[C@H]1[C@@H]1OC(=O)c2c1ccc1c2OCO1)OCO3.[Cl-] [BM, (−)-Bicuculline Methochloride]
- inhibition of the proliferative action of EP (BEAS-2B [3]): not inhibited
